Reference: the supplement of paper PMC13380429

Legend:
[1] = system: A549-ACE2 infected with SARS-CoV-2; assay: cell count relative to DMSO; higher = less toxic; details: 24 h
[2] = system: Caco-2; assay: cell viability relative to DMSO; higher = less toxic; details: 72 h
[3] = system: Calu-3; assay: as above; details: 72 h
[4] = system: U2OS; assay: as above; details: 72 h
[5] = system: Vero E6; assay: as above; details: 72 h
[6] = system: A549-ACE2 infected with SARS-CoV-2; assay: SARS-CoV-2 infection rate relative to DMSO; higher = more infection; details: 24 h
[7] = system: A549-ACE2; assay: drug-induced phospholipidosis relative to tamoxifen; higher = more phospholipidosis
[8] = system: A549-ACE2 infected with SARS-CoV-2; assay: morphology score (similarity to uninfected cells); higher = more like uninfected cells; details: 24 h
[9] = system: Caco-2; assay: relative viability EC50 (midpoint between 100% and the lowest measured viability); higher = less toxic; details: 72 h
[10] = system: Calu-3; assay: as above; details: 72 h
[11] = system: U2OS; assay: as above; details: 72 h
[12] = system: Vero E6; assay: as above; details: 72 h
[13] = system: Caco-2; assay: drug sensitivity score (DSS) for viability; higher = more toxic; extreme values may be limits of the assay; details: 72 h
[14] = system: Calu-3; assay: as above; details: 72 h
[15] = system: U2OS; assay: as above; details: 72 h
[16] = system: Vero E6; assay: as above; details: 72 h
[17] = system: HepG2; assay: cell viability relative to DMSO; higher = less toxic; details: 72 h
[18] = system: HepG2; assay: relative viability EC50 (midpoint between 100% and the lowest measured viability); higher = less toxic; details: 72 h
[19] = system: HepG2; assay: drug sensitivity score (DSS) for viability; higher = more toxic; extreme values may be limits of the assay; details: 72 h

[Cl][Ru-]([Cl])([Cl])[Cl].[Na+].c1ccc2[nH]ncc2c1.c1ccc2[nH]ncc2c1 [NKP-1339]
Details	SARS-CoV-2 infection rate, [6] [%]	cell count, [1] [%]	cell viability, [2] [%]	cell viability, [3] [%]	cell viability, [4] [%]	cell viability, [5] [%]	morphology score, [8]
1 nM	–	–	98.5	96.2	94.2	95.7	–
10 nM	–	–	96.6	91.9	95.9	99.2	–
100 nM	–	–	94.3	93.2	100	98.9	–
0.3 µM	95	98	–	–	–	–	0.32
1000 nM	–	–	89.9	111	98.4	104	–
3 µM	99	103	–	–	–	–	0.06
10 µM	97	100	–	–	–	–	0.14
10000 nM	–	–	85.2	96.1	99.5	103	–
30 µM	91	105	–	–	–	–	0.16

drug-induced phospholipidosis [%], [7]
Details	0.3 µM	0.833333 µM	3.33333 µM	6.66667 µM	10 µM	30 µM
24 h	-0.57	0.18	-2.08	-1.49	-1.44	2.85
48 h	0.31	0.08	-0.84	-0.18	-0.5	1.39
72 h	0.516	-1.21	-0.615	-0.927	0.0701	3.63

Details	drug sensitivity score	relative viability EC50 [µM]
[9]	–	> 10
[10]	–	> 10
[11]	–	> 10
[12]	–	> 10
[13]	0.5	–
[14]	0	–
[15]	0	–
[16]	0	–

Cc1nnc2n1-c1sc(CCC(=O)N3CCOCC3)cc1C(c1ccccc1Cl)=NC2 [apafant]
Details	SARS-CoV-2 infection rate, [6] [%]	cell count, [1] [%]	cell viability, [2] [%]	cell viability, [3] [%]	cell viability, [5] [%]	cell viability, [17] [%]	morphology score, [8]
1 nM	–	–	108	94.3	111	105	–
10 nM	–	–	107	94.7	105	93.7	–
100 nM	–	–	101	95.3	104	108	–
0.3 µM	101	101	–	–	–	–	-0.03
1000 nM	–	–	104	105	105	92.3	–
3 µM	83	102	–	–	–	–	0.43
10 µM	102	100	–	–	–	–	-0.18
10000 nM	–	–	94	87.1	99.7	102	–
30 µM	93	103	–	–	–	–	0.24

drug-induced phospholipidosis [%], [7]
Details	0.3 µM	0.833333 µM	3.33333 µM	6.66667 µM	10 µM	30 µM
24 h	-0.44	-1.14	-1.04	-0.5	-1.44	-0.48
48 h	0.52	-1.18	0.04	0.92	-0.18	0.6
72 h	2.35	-0.663	0.399	-0.364	0.448	3.95

Details	drug sensitivity score	relative viability EC50 [µM]
[9]	–	> 10
[10]	–	> 10
[12]	–	> 10
[13]	0	–
[14]	0	–
[16]	0	–
[18]	–	> 10
[19]	0	–
